How the values were obtained:
Type in all cases: biochemical, Piper nigrum
[1] = tested on: PipSyn1; assay: in vitro enzyme assay of amide formation from CoA-ester and amine, PipSyn1; conditions: 100% = 2 nkat/mg PipSyn2 with piperoyl-CoA and piperidine, quantification by mass detection; for relative activity, hexanoyl-CoA: CoA-ester hexanoyl-CoA; for relative activity, myristoyl-CoA: CoA-ester myristoyl-CoA
[2] = tested on: PipSyn1; assay: as above; conditions: 100% = 2 nkat/mg PipSyn2 with piperoyl-CoA and piperidine, UV quantification; for relative activity, 3,4-methylenedioxycinnamoyl-CoA: CoA-ester 3,4-methylenedioxycinnamoyl-CoA; for relative activity, benzoyl-CoA: CoA-ester benzoyl-CoA; for relative activity, piperoyl-CoA: CoA-ester piperoyl-CoA
Description: Standard assays are routine for a person of average skill in the art.
(§1) A standard enzyme assay contains:
(§2) 10 μl enzyme solution in 30 mM Tris/HCl buffer pH 8.0 (10% glycerol, 1 mM DTT)
(§3) 1 μg-5 μg protein, amount determined according to Bradford
(§4) 10 μl piperidine, 100 mM (in water) 10 μl 5 mM DTT in water 10 μl piperoyl-CoA (PipCoA) 2.5 mM in 25% DMSO/75% water • All reagents (except PipCoA) were mixed in Eppendorf tubes and incubated in a standard (Eppendorf) incubator set at 30° C. Reagents were pre-equilibrated for 1 min to this temperature. • Assay start: addition of 10 μl PipCoA 2.5 mM in 25% DMSO/75% water to a final concentration of 500 μM PipCoA. • Assay stop after 5 min addition of 10 μl stop solution such as 1% formic acid/50% acetonitrile
(§5) Mix by vortex, incubate on ice for 5 minutes and centrifugation for 1 min at 20,000 g to precipitate any debris or insoluble material e.g. residual protein.
(§6) Remove 50 μl of supernatant for analysis of products (amides) by LC-MS. Injected to an RP-HPLC column are 10 μl (out of 50 μl). • Product formation is recorded via UV/PDA (photodiode array) detector and LC-MS and simultaneously. • Identification of piperine was achieved by use of a commercial standard and by LC-MS detection of calculated product masses at m/z 286 and UV-detection at 340 nm. • Quantification of product formation was achieved by a standard graph of piperine from 0.1-100 μM (commercial standard, Sigma) and recorded and calculated intensities of mass (peak area) and/or UV-peak area. • Identification and separation of piperine was according to a corresponding standard and a mass signal of m/z 286.1 in pos. mode and its corresponding absorbance at λmax-340 nm.
(§7) Quantification was performed based on a commercially available piperine standard. The peak area of the peak due to piperine in the LC trace was determined. Peaks due to possible isomerization products of piperine were neglected for the determination of enzyme activity of piperine formation. […] Before calculating enzyme activity in terms of nkat (nmole of piperine formed per second), the amount of non-enzymatically formed piperine is subtracted from the amount determined in the presence of protein.
(§8) Protein amounts were determined photometrically by the Bradford assay of combining a defined volume, preferentially 10 μl of the (partly) purified PipSyn1 and PipSyn2 enzyme and 990 μl of Bradford reagent, and calculating the resulting absorbance at λ=595 nm based on a standard curve made with a serial dilution of commercially available Bovine Serum Albumin fraction V in water.
(§9) This Example provides in Table 1 substrates which were tested for enzyme activity with both enzymes. Activity data were calculated from the UV-(PDA) area in the range of 320-370 nm. The data are supported by LC-MS measurements of corresponding m/z values recorded in positive ionization mode and based on calculated expected masses. Mass accuracy of Waters QDA-detector is +/−0.2 Dalton. Contrary to the procedure of Example 3, for the determination of the activity of the reaction of piperoyl-CoA and piperidine as substrates, the sum of all peaks in the LC trace due to species having calculated m/z values of the expected products was used for quantification of product, assuming the same ionization efficiency in positive ionization mode as in case of piperine for all molecule species.

[3] = tested on: recombinant PipSyn2; assay: in vitro enzyme assay of amide formation from CoA-ester and amine, PipSyn2; conditions: for relative activity, 3,4-methylenedioxycinnamoyl-CoA / relative activity, hexanoyl-CoA / relative activity, myristoyl-CoA / relative activity, piperoyl-CoA: PipSyn2; for relative activity, 3,4-methylenedioxycinnamoyl-CoA: CoA-ester 3,4-methylenedioxycinnamoyl-CoA; for relative activity, 3,4-methylenedioxycinnamoyl-CoA / relative activity, hexanoyl-CoA / relative activity, myristoyl-CoA: 100% = 2 nkat/mg PipSyn2 with piperoyl-CoA and piperidine; for relative activity, 3,4-methylenedioxycinnamoyl-CoA / relative activity, piperoyl-CoA: UV quantification; for relative activity, hexanoyl-CoA: CoA-ester hexanoyl-CoA; for relative activity, hexanoyl-CoA / relative activity, myristoyl-CoA: quantification by mass detection; for relative activity, myristoyl-CoA: CoA-ester myristoyl-CoA; for relative activity, piperoyl-CoA: CoA-ester piperoyl-CoA, 100% = 2 nkat/mg PipSyn2 with piperidine, assay as Example 3
Description: Enzyme activity test with regard to piperine formation in case of PipSynthase 2.
as §1, §2, §3, §4, §5, §6, §7, §8, §9

Molecule: C1CCNCC1 [piperidine]
- relative activity, hexanoyl-CoA [1]: 23%
- relative activity, myristoyl-CoA [1]: 10%
- relative activity, 3,4-methylenedioxycinnamoyl-CoA [2]: 184%
- relative activity, benzoyl-CoA [2]: 7%
- relative activity, piperoyl-CoA [2]: 117%
- relative activity, 3,4-methylenedioxycinnamoyl-CoA [3]: 38%
- relative activity, hexanoyl-CoA [3]: 12%
- relative activity, myristoyl-CoA [3]: 10%
- relative activity, piperoyl-CoA [3]: 100%

Molecule: COc1cc(CN)ccc1O [vanillylamine]
- relative activity, hexanoyl-CoA [1]: 2%
- relative activity, 3,4-methylenedioxycinnamoyl-CoA [2]: 10%
- relative activity, piperoyl-CoA [2]: 2%
- relative activity, hexanoyl-CoA [3]: <1%

Molecule: C1CCNC1 [pyrrolidine]
- relative activity, hexanoyl-CoA [1]: 300%
- relative activity, myristoyl-CoA [1]: 3%
- relative activity, 3,4-methylenedioxycinnamoyl-CoA [2]: 186%
- relative activity, benzoyl-CoA [2]: 1%
- relative activity, piperoyl-CoA [2]: 77%
- relative activity, 3,4-methylenedioxycinnamoyl-CoA [3]: 3%
- relative activity, hexanoyl-CoA [3]: 60%
- relative activity, myristoyl-CoA [3]: <1%
- relative activity, piperoyl-CoA [3]: 34%

Molecule: NCC1CCNCC1 [4-aminomethylpiperidine]
- relative activity, 3,4-methylenedioxycinnamoyl-CoA [2]: 6%
- relative activity, piperoyl-CoA [2]: 17%
- relative activity, 3,4-methylenedioxycinnamoyl-CoA [3]: 7%
- relative activity, piperoyl-CoA [3]: 36%

Molecule: NCCc1ccc(O)c(O)c1 [dopamine]
- relative activity, 3,4-methylenedioxycinnamoyl-CoA [2]: 7%
- relative activity, piperoyl-CoA [2]: 2%

Molecule: CC(C)CN [isobutylamine]
- relative activity, myristoyl-CoA [1]: 20%
- relative activity, 3,4-methylenedioxycinnamoyl-CoA [2]: 173%
- relative activity, benzoyl-CoA [2]: 6%
- relative activity, piperoyl-CoA [2]: 66%
- relative activity, 3,4-methylenedioxycinnamoyl-CoA [3]: 2%
- relative activity, myristoyl-CoA [3]: 15%
- relative activity, piperoyl-CoA [3]: 16%

Molecule: NCCCCCCCN [1,7-diaminoheptane]
- relative activity, 3,4-methylenedioxycinnamoyl-CoA [2]: 104%
- relative activity, benzoyl-CoA [2]: 2%
- relative activity, piperoyl-CoA [2]: 26%
- relative activity, piperoyl-CoA [3]: 2%

B1: PipSyn2: recombinant His-tagged piperine synthase from Piper nigrum, amino acid sequence SEQ ID NO: 4, expressed in E. coli (protein, listed as Piper nigrum)
chain: MAPSSQLEFNVVRKQPELLPPAEPTPFEWKELSDIDDQDGLRLHISGFFIYPPSTMSNVGRDNVARDIRLGLSKAMVFYYPLAGRIREGPNRKLSVECTGEGIMYCEADADVRLEQFGDIGALSMPFPFMDKVMFETVDDGILGTPLMYFQSTRFICGGIVIAGCYNHAIADGLGFYMFMAAAAQLARGAASPTPLPVWQRERLLSRVPPRVTFIHHEYIHDTPKTETANPLDNEPWPLHSIFFTRVDVAALRAQLPGHLRKSATSFEIISACLWRCRTAALRFAPDELSRLIIAVNARTKFGPPLPQGYYGNSIMLPMVVSEAGKLVLSGLGYAVELVIEAKGKVTEEYVKSVADYLVLNGRPHYVVTNTYLVSDLRQLVEMSKFDWGWGKPAYVGPADVGENAISFLATLKNGEEEGVVVPIRLPESAVGRFKSEVSKMVSFGCLEDVKPNRDGYLSRM
modifications: His tag
- catalytic activity taken as 100% ([3]; recombinant PipSyn2 with piperoyl-CoA and piperidine as substrates): 2 nkat/mg

From patent US20220290111A1, “NUCLEIC ACIDS, PROTEINS AND PROCESSES FOR PRODUCING AMIDES” (Leibniz-Institut für Pflanzenbiochemie, priority 2019, published 2022)
